# Assay results as given in patent US12441736B2, “KIF18A inhibitors” (AMGEN INC., priority 2018, dated 2025).
# Target: T1, Recombinant human KIF18A (1-467 His-tagged) protein (Homo sapiens, UniProt Q8NI77)
# T1 construct: Recombinant human KIF18A (1-467 His-tagged) protein; His; made in house
# Experiment: KIF18A Enzyme Assay: microtubule-stimulated ATPase activity (ADP-Glo)
# Assay type: biochemical
# Settings: 30 nM KIF18A, 30 μg/mL pig microtubules, 75 μM ATP, ADP-Glo luminescence
# Procedure, shortened: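 His-tagged human KIF18A (1-467, baculovirus), 30 nM, pre-incubated 15 min with compound in Tris pH 7.5 containing 30 μg/mL taxol-stabilised pig microtubules. ATP was then added at Km (75 μM) for 15 min at room temperature. ADP was measured by ADP-Glo luminescence, and IC50 was fitted by 4-parameter logistic over 22 points.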
# T1 sequence (Q8NI77 1-467): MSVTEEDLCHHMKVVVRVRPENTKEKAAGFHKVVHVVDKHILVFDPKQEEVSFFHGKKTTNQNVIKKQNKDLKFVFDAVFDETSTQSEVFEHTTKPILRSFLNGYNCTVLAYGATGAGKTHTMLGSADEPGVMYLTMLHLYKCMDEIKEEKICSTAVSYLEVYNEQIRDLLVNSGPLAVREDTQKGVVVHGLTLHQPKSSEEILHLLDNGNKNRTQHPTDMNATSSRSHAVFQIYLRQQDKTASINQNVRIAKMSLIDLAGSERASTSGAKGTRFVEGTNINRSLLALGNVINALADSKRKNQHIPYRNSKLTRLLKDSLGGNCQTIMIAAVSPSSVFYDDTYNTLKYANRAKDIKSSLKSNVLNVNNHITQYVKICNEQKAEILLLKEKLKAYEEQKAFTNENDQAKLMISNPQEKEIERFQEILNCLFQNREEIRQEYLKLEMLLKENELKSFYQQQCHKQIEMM
# T1 sequence (P02550 whole entry partner): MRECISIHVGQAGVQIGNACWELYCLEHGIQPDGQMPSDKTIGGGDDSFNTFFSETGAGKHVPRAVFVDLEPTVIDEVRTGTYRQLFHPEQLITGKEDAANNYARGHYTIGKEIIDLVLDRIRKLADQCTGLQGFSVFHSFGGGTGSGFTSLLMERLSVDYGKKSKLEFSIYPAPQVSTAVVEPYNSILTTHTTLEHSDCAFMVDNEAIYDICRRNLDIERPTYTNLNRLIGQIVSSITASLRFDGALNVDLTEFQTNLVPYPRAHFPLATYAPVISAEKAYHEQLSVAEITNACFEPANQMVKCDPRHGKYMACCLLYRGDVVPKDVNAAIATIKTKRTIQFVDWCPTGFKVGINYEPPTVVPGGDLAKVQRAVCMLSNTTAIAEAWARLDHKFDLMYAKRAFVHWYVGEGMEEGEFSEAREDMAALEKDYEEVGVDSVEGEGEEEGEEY
# T1 sequence (P02554 whole entry partner): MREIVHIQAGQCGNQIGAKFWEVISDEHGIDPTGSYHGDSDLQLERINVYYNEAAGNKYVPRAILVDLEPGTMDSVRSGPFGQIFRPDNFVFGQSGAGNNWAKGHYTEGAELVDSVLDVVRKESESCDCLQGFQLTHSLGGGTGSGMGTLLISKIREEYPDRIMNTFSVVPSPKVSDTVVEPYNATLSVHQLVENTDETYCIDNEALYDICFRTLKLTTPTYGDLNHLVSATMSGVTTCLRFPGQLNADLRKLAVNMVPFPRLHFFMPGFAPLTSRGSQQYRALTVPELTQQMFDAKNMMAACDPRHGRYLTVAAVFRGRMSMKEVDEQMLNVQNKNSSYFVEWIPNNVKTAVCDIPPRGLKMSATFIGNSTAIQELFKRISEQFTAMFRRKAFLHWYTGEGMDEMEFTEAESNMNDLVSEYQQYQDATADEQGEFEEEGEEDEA
row,IC50,Compound
1,138 nM,"CC(C)(CO)Nc1cnc(C(=O)Nc2cc(C#N)cc(N3CCOCC3)n2)c(N2CCC3(CC2)CC3)n1 [Example 117, 3-(6-azaspiro[2.5]octan-6-yl)-N-(4-cyano-6-(4-morpholinyl)-2-pyridinyl)-5-((1-hydroxy-2-methyl-2-propanyl)amino)-2-pyrazinecarboxamide]"
2,84.4 nM,"CC(C)(CO)Nc1cnc(C(=O)Nc2cccc(N3CCOCC3)n2)c(N2CCC3(CC2)CC3)n1 [Example 106, 3-(6-azaspiro[2.5]oct-6-yl)-5-((2-hydroxy-1,1-dimethylethyl)amino)-N-(6-(4-morpholinyl)-2-pyridinyl)-2-pyrazinecarboxamide]"
3,2260 nM,"CC(C)N1CCN(c2cccc(NC(=O)c3ccc(NC(C)(C)CO)nc3N3CCC4(CC3)CC4)n2)CC1 [Example 188, 2-(6-azaspiro[2.5]octan-6-yl)-6-((1-hydroxy-2-methyl-2-propanyl)amino)-N-(6-(4-(2-propanyl)-1-piperazinyl)-2-pyridinyl)-3-pyridinecarboxamide]"
4,87.8 nM,"CC(C)(C)NS(=O)(=O)c1cccc(NC(=O)c2ncc(NC(C)(CO)CO)nc2N2CCC3(CC2)CC3)n1 [Example 108, N-(6-(N-(tert-butyl)sulfamoyl)pyridin-2-yl)-5-((1,3-dihydroxy-2-methylpropan-2-yl)amino)-3-(6-azaspiro[2.5]octan-6-yl)pyrazine-2-carboxamide]"
5,365 nM,"CC(C)(CO)Nc1ccc(C(=O)Nc2cccc(N3CCOC(C(C)(C)O)C3)n2)c(N2CCC3(CC2)CC3)n1 (stereo not shown) [Example 186, 6-((1-hydroxy-2-methylpropan-2-yl)amino)-N-(6-(2-(2-hydroxypropan-2-yl)morpholino)pyridin-2-yl)-2-(6-azaspiro[2.5]octan-6-yl)nicotinamide]"
6,294 nM,"CC(C)(CO)Nc1ccc(C(=O)Nc2cccc(N3CCC(O)C3)n2)c(N2CCC3(CC2)CC3)n1 (stereo not shown) [Example 131, 6-((1-hydroxy-2-methylpropan-2-yl)amino)-N-(6-(3-hydroxypyrrolidin-1-yl)pyridin-2-yl)-2-(6-azaspiro[2.5]octan-6-yl)nicotinamide]"
7,692 nM,"Cc1cc(NC(=O)c2ccc(OCC(N)(CO)C(F)(F)F)nc2N2CCC3(CC2)CC3)nc(N2CCOCC2)c1 (stereo not shown) [Example 208, 6-(2-amino-3,3,3-trifluoro-2-(hydroxymethyl)propoxy)-N-(4-methyl-6-morpholinopyridin-2-yl)-2-(6-azaspiro[2.5]octan-6-yl)nicotinamide]"
8,1160 nM,"COc1cc(NC(=O)c2ncc(NC(C)(C)CO)nc2N2CCC3(CC2)CC3)nc(N2CCOCC2)c1 [Example 116, 3-(6-azaspiro[2.5]octan-6-yl)-5-((1-hydroxy-2-methyl-2-propanyl)amino)-N-(4-methoxy-6-(4-morpholinyl)-2-pyridinyl)-2-pyrazinecarboxamide]"
9,1940 nM,"C[C@@H]1CN(c2cccc(NC(=O)c3ncc(N4C(=O)OCC4(C)C)nc3N3CCC4(CC3)CC4)n2)CCO1 [Example 103, 3-(6-azaspiro[2.5]oct-6-yl)-5-(4,4-dimethyl-2-oxo-1,3-oxazolidin-3-yl)-N-(6-((2R)-2-methyl-4-morpholinyl)-2-pyridinyl)-2-pyrazinecarboxamide]"
10,150 nM,"C[C@@H]1CN(c2cccc(NC(=O)c3ccc(NS(C)(=O)=O)nc3N3CCC4(CC3)CC4)n2)CCO1 [Example 218, 2-(6-azaspiro[2.5]octan-6-yl)-N-(6-((2R)-2-methyl-4-morpholinyl)-2-pyridinyl)-6-((methylsulfonyl)amino)-3-pyridinecarboxamide]"
11,52.5 nM,"CC(C)(CO)Nc1ccc(C(=O)Nc2cccc(N3CCOCC3)n2)c(N2CCC3(CC2)CC3)n1 [Example 127, 2-(6-azaspiro[2.5]oct-6-yl)-6-((2-hydroxy-1,1-dimethylethyl)amino)-N-(6-(4-morpholinyl)-2-pyridinyl)-3-pyridinecarboxamide]"
12,70.5 nM,"CC(C)(CO)Nc1cnc(C(=O)Nc2cccc(S(=O)(=O)N3CCCCC3)n2)c(N2CCC3(CC2)CC3)n1 [Example 100, 5-((1-hydroxy-2-methylpropan-2-yl)amino)-N-(6-(piperidin-1-ylsulfonyl)pyridin-2-yl)-3-(6-azaspiro[2.5]octan-6-yl)pyrazine-2-carboxamide]"
13,62 nM,"Cc1cc(NC(=O)c2ccc(NC(C)(CO)CO)nc2N2CCC3(CC2)CC3)nc(N2CCOCC2)c1 [Example 184, 2-(6-azaspiro[2.5]octan-6-yl)-6-((1,3-dihydroxy-2-methyl-2-propanyl)amino)-N-(4-methyl-6-(4-morpholinyl)-2-pyridinyl)-3-pyridinecarboxamide]"
14,158 nM,"C[C@@H]1CN(c2cccc(NC(=O)c3ccc(C(F)(CO)CO)nc3N3CCC4(CC3)CC4)n2)CCO1 [Example 196, 2-(6-azaspiro[2.5]octan-6-yl)-6-(2-fluoro-1,3-dihydroxy-2-propanyl)-N-(6-((2R)-2-methyl-4-morpholinyl)-2-pyridinyl)-3-pyridinecarboxamide]"
15,260 nM,"CC(C)(C)NS(=O)(=O)c1cccc(NC(=O)c2ncc(C(C)(O)C(F)(F)F)nc2N2CCC3(CC2)CC3)n1 (stereo not shown) [Example 110, N-(6-(N-(tert-butyl)sulfamoyl)pyridin-2-yl)-3-(6-azaspiro[2.5]octan-6-yl)-5-(1,1,1-trifluoro-2-hydroxypropan-2-yl)pyrazine-2-carboxamide]"
16,592 nM,"CC(C)(CO)Nc1ccc(C(=O)Nc2cccc(N3CCN(C(=O)OC(C)(C)C)CC3)n2)c(N2CCC3(CC2)CC3)n1 [Example 185, 2-methyl-2-propanyl 4-(6-(((2-(6-azaspiro[2.5]octan-6-yl)-6-((1-hydroxy-2-methyl-2-propanyl)amino)-3-pyridinyl)carbonyl)amino)-2-pyridinyl)-1-piperazinecarboxylate]"
17,2190 nM,"CC1(C)COC(=O)N1c1cccc(NC(=O)c2ccc(N3C(=O)OCC3(C)C)nc2N2CCC3(CC2)CC3)n1 [Example 161, 2-(6-azaspiro[2.5]octan-6-yl)-6-(4,4-dimethyl-2-oxo-1,3-oxazolidin-3-yl)-N-(6-(4,4-dimethyl-2-oxo-1,3-oxazolidin-3-yl)-2-pyridinyl)-3-pyridinecarboxamide]"
18,172 nM,"CC(C)(CO)Nc1ccc(C(=O)Nc2cccc(N3CCOC(C)(C)C3)n2)c(N2CCC3(CC2)CC3)n1 [Example 130, 2-(6-azaspiro[2.5]oct-6-yl)-N-(6-(2,2-dimethyl-4-morpholinyl)-2-pyridinyl)-6-((2-hydroxy-1,1-dimethylethyl)amino)-3-pyridinecarboxamide]"
19,89.3 nM,"C[C@H]1CCN(c2cccc(NC(=O)c3ccc(NC(C)(C)CO)nc3N3CCC4(CC3)CC4)n2)C1 [Example 139, 2-(6-azaspiro[2.5]oct-6-yl)-6-((1-hydroxy-2-methyl-2-propanyl)amino)-N-(6-((3S)-3-methyl-1-pyrrolidinyl)-2-pyridinyl)-3-pyridinecarboxamide]"
20,90.4 nM,"CC(C)(C)NS(=O)(=O)c1cccc(NC(=O)c2ccc(C(C)(O)C(F)(F)F)nc2N2CCC3(CC2)CC3)n1 (racemic) [Example 143, N-(6-(N-(tert-butyl)sulfamoyl)pyridin-2-yl)-2-(6-azaspiro[2.5]octan-6-yl)-6-(1,1,1-trifluoro-2-hydroxypropan-2-yl)nicotinamide]"
21,284 nM,"C[C@@H]1CN(c2cccc(NC(=O)c3ccc(S(C)(=O)=O)nc3N3CCC4(CC3)CC4)n2)CCO1 [Example 238, (R)-N-(6-(2-methylmorpholino)pyridin-2-yl)-6-(methylsulfonyl)-2-(6-azaspiro[2.5]octan-6-yl)nicotinamide]"
22,817 nM,"CC(C)(C)NS(=O)(=O)c1cccc(NC(=O)c2ncc(N3C(=O)OCC3(C)C)nc2N2CCC3(CC2)CC3)n1 [Example 119, 3-(6-azaspiro[2.5]octan-6-yl)-5-(4,4-dimethyl-2-oxo-1,3-oxazolidin-3-yl)-N-(6-((2-methyl-2-propanyl)sulfamoyl)-2-pyridinyl)-2-pyrazinecarboxamide]"
23,101 nM,"CC(C)(C)NS(=O)(=O)c1cccc(NC(=O)c2ccc([C@](O)(CO)C(F)(F)F)nc2N2CCC3(CC2)CC3)n1 (single isomer, unassigned) [Example 176]"
24,204 nM,"CC(C)(CO)Nc1ccc(C(=O)Nc2cccc(N3CCCC3=O)n2)c(N2CCC3(CC2)CC3)n1 [Example 134, 2-(6-azaspiro[2.5]oct-6-yl)-6-((2-hydroxy-1,1-dimethylethyl)amino)-N-(6-(2-oxo-1-pyrrolidinyl)-2-pyridinyl)-3-pyridinecarboxamide]"
25,53.4 nM,"C[C@@H]1CN(c2cccc(NC(=O)c3ccc(NC(C)(CO)CO)nc3N3CCC4(CC3)CC4)n2)CCO1 [Example 147, (R)-6-((1,3-dihydroxy-2-methylpropan-2-yl)amino)-N-(6-(2-methylmorpholino)pyridin-2-yl)-2-(6-azaspiro[2.5]octan-6-yl)nicotinamide]"
26,247 nM,"CC(C)(CO)Nc1ccc(C(=O)Nc2cccc(C3CCOCC3)n2)c(N2CCC3(CC2)CC3)n1 [Example 146, 2-(6-azaspiro[2.5]oct-6-yl)-6-((1-hydroxy-2-methyl-2-propanyl)amino)-N-(6-(tetrahydro-2H-pyran-4-yl)-2-pyridinyl)-3-pyridinecarboxamide]"
27,110 nM,"CC(C)(CO)Nc1ccc(C(=O)Nc2cccc(N3CCO[C@H](CO)C3)n2)c(N2CCC3(CC2)CC3)n1 [Example 189, 2-(6-azaspiro[2.5]octan-6-yl)-N-(6-((2S)-2-(hydroxymethyl)-4-morpholinyl)-2-pyridinyl)-6-((1-hydroxy-2-methyl-2-propanyl)amino)-3-pyridinecarboxamide]"
28,80.4 nM,"CC(C)(CO)Nc1ccc(C(=O)Nc2cccc(N3CCC[C@@H](O)C3)n2)c(N2CCC3(CC2)CC3)n1 [Example 216, 2-(6-azaspiro[2.5]octan-6-yl)-6-((1-hydroxy-2-methyl-2-propanyl)amino)-N-(6-((3R)-3-hydroxy-1-piperidinyl)-2-pyridinyl)-3-pyridinecarboxamide]"
